Results published in patent US20140359899A1 (priority 2011, published 2014).

Key:
AtSWEET12 = biological target: T1, AtSWEET12 (Arabidopsis thaliana, UniProt O82587); test: Oocyte efflux assay: [14C]-sugar efflux from Xenopus oocytes expressing AtSWEET12; format: cell-based; details: FIG. 4D
T1 construct: Primers for the full length ORF of AtSWEET11 (AtSWT11FattB1 and AtSWT11attB2) or AtSWEET12; expressed in transfected cells; host or cells: Xenopus oocytes injected with capped cRNA from pOO2-GW
T1 sequence (O82587 whole entry): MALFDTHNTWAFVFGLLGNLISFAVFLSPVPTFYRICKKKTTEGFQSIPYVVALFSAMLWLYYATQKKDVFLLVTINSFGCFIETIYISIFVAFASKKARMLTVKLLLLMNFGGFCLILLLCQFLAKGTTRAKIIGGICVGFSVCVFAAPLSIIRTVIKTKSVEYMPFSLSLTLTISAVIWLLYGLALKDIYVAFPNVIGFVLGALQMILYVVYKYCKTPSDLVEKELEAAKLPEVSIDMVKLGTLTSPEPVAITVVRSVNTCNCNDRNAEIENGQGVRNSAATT

[1] = biological target: FRET sucrose sensor FLIPsuc90μΔ1V; details: detection level of the sucrose sensor; cited from earlier work

Row | Compound | Maltose efflux (AtSWEET12) | Kd [1]
1 | OC[C@H]1O[C@H](O[C@H]2[C@H](O)[C@@H](O)C(O)O[C@@H]2CO)[C@H](O)[C@@H](O)[C@@H]1O (mixture of isomers) [Maltose, maltose] | undetectable | 
2 | OC[C@H]1O[C@@](CO)(O[C@H]2O[C@H](CO)[C@@H](O)[C@H](O)[C@H]2O)[C@@H](O)[C@@H]1O [sucrose] |  | ~90 µM
